Experimental data taken from patent US8492352B2, “Polysaccharides with antithrombotic activity, including a covalent bond and an amino chain” (Sanofi, priority 2008, dated 2013).
Where a name gives a salt, the structure may show the parent alone.

Biological target: coagulation factor Xa, in the presence of antithrombin (Homo sapiens, UniProt P01008)
Experiment: in vitro model of inhibition of coagulation factor Xa in the presence of antithrombin (anti-factor Xa activity)
Assay type: biochemical
Conditions: method per Herbert et al., Blood 1998, read-out: IC50 (dose for 50% inhibition), inhibition of coagulation factor Xa (converted)
Text: The pharmacological activity of these products was in particular studied in an in vitro model of inhibition of coagulation factor Xa, in the presence of antithrombin (anti-factor Xa activity dependent on the presence of antithrombin), as described by J.-M. Herbert et al., Blood, 1998, 91, 4197-4205. In this model, the antithrombotic properties of the compounds according to the invention are confirmed.

coagulation factor Xa, in the presence of antithrombin, sequence (P01008 33-464): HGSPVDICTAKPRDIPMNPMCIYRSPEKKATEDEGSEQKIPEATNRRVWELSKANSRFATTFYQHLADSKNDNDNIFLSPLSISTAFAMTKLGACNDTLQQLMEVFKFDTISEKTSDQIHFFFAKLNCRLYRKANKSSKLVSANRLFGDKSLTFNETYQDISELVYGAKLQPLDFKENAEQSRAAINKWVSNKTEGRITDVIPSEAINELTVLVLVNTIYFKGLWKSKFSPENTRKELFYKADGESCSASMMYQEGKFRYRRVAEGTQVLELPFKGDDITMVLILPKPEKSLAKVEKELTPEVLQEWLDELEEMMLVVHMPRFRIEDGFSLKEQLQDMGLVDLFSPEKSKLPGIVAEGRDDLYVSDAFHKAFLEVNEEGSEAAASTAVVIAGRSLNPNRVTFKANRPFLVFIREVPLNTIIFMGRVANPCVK

SMILES: COC1OC(COS(=O)(=O)O)C(OC2OC(C(=O)O)C(OC3OC(COS(=O)(=O)O)C(OC4OC(C(=O)O)C(OC5OC(COS(=O)(=O)O)C(OC)C(OC)C5NC(=O)CCCCCN)C(OC)C4OC)C(OS(=O)(=O)O)C3OS(=O)(=O)O)C(OC)C2OC)C(OS(=O)(=O)O)C1OS(=O)(=O)O [compound 1, Methyl(2-[N-(6-aminohexanoyl)]-2-deoxy-3,4-di-O-methyl-6-O-sulfonato-α-D-glucopyranosyl)-(1→4)-(2,3-di-O-methyl-β-D-glucopyranosyluronic acid)-(1→4)-(2,3,6-tri-O-sulfonato-α-D-glucopyranosyl)-(1→4)-(2,3-di-O-methyl-α-L-idopyranosyluronic acid)-(1→4)-2,3,6-tri-O-sulfonato-α-D-glucopyranoside, sodium salt]
- IC50: 10.4 nM
